Measurements taken from patent publication EP4644375A1, “SUBSTITUTED HYDROQUINOLINES FOR THE TREATMENT OF GLIOBLASTOMA MULTIFORME” (Molius Saglik Teknolojileri Anonim Sirketi, priority 2024, dated 2025).

Columns and labels:
[1] = test system: GBM xenograft rat model; assay: In vivo GBM rat model: histopathological examination of brain tissues; conditions: H&E, GBM rats, 30 mg/kg oral, 5 days
Procedure: An in Vivo study was performed to assess the therapeutic potential of TR-G002, TR-G045, TR-G053, TR-G066, TR-G071 and TR-G091 in the GBM xenograft rat model when administered orally by gavage for five consecutive days. 152 female rats of the Sprague Dawley strain were allocated to the study. Six groups of sixteen females were given dose of 30 mg/kg of the respective target compounds. […] The study design can be seen in Fig. 11 and Table 10.
Female Sprague Dawley rats (age: 6-8 weeks; weight: 255-310 g; ATADEM, Erzurum, Turkey) were utilized in the study. Rats underwent anaesthesia with 5% isoflurane, maintained at 2% isoflurane (1 L/min oxygen), and were positioned in a stereotactic frame for cell implantation (Stoelting Co., IL). […] A burr hole was drilled 1-mm anterior and 3-mm lateral to the right bregma. A microsyringe (Hamilton 1700 series) containing 5×10^4 U87-MG cells suspended in 5 µL of medium at 37 °C was advanced to a depth of 4 mm into the brain. The cells were injected at a rate of 3 µL/ min. Bone wax was used to fill the burr hole to prevent cell suspension reflux. The incision was sutured, and 1 mL of Meloxicam (5 mg/mL; Metacam, Boehringer Ingelheim Vetmedica, Ingelheim, Germany) was administered via a subcutaneous injection.
Fourteen days after inoculation, tumor development in rats was visualized and confirmed through magnetic resonance imaging (MRI). Rats confirmed to have developed tumors were then distributed into six different groups for treatment. […] 9 days after the final treatment dose, the rats underwent another MRI scan and blood and brain samples were taken under anaesthesia.
Brain tissue samples were fixed in a 10% buffered formaldehyde solution. After fixation, the tissues were processed through graded alcohol and xylene series and embedded in paraffin blocks. Sections of 5 µm thickness were taken from the paraffin blocks at intervals of 50-100 µm. Hematoxylin and eosin staining was performed on these sections to evaluate histopathological changes. Histopathological findings included tumor focus size, necrotic area, vascular proliferation, and cellular proliferation patterns. Tumor focus size was categorized as follows based on the diameter measured with a 4X objective on the microscope: >3500 µm was considered very severe, 3499-2000 µm severe, 1999-1000 µm moderate, 999-500 µm mild, and <500 µm very mild. Necrotic area size was classified based on the diameter of necrosis: >1500 µm as very severe, 1499-1000 µm severe, 999-500 µm moderate, 499-200 µm mild, and <199 µm very mild.

[2] = test system: CMPK2; assay: In vivo GBM rat model: immunohistochemical examination; conditions: tumor cells, brain tissues, GBM rats, 30 mg/kg oral, 5 days
Description: For immunohistochemical examinations, primary antibodies (Ki67 Cat no: ab15580 dilution ratio: 1/100; CMPK2 Cat no: PA5-34461, dilution ratio: 1/100, GFAP Cat no: ab6842 dilution ratio: 1/100) were used. 3-3' Diaminobenzidine (DAB) was used as chromogen. Mayer's hematoxylin was used for counterstaining. Sections were examined under a light microscope (Zeiss AXIO, Germany).
(§1) Individual body weights were manually calculated. Group mean body weights; group mean body weight changes and organ weights were also manually calculated without statistical analysis. To determine the density of positive staining from immunohistochemical and immunofluorescence staining images, five randomly selected areas were evaluated using ZEISS Zen Imaging Software. Data were statistically defined as mean and standard deviation (mean ± SD) for the percentage of the area. One-way ANOVA followed by the Tukey test was performed to compare immunoreactive cells and immune-positive stained areas with healthy controls. GraphPad Prism software was used for analysis.

[3] = test system: H2A.X; assay: In vivo GBM rat model: double immunofluorescence examination; conditions: neurons, brain tissues, GBM rats, 30 mg/kg oral, 5 days
Procedure: (§2) In immunofluorescence examinations, primary antibody (NOP10 Cat no: ab134902 dilution ratio: 1/100) was applied to tissues and incubated according to the instructions. A fluorescent secondary antibody (FITC Cat No: ab6785 dilution Ratio: 1/1000 UK) was then applied and incubated in the dark for 45 minutes. Afterward, a second primary antibody (H2A.X Cat no: sc-517336 dilution ratio: 1/100) was applied and incubated according to the instructions. A different fluorescent secondary antibody (Texas Red Cat No: ab6719 dilution Ratio: 1/1000 UK) was applied and incubated in the dark for 45 minutes. Finally, DAPI (Cat no: D1306 dilution ratio: 1/200 UK) was applied to the sections for 5 minutes in the dark, followed by covering the tissues with coverslips. The stained tissues were examined under a fluorescence attachment-equipped microscope (Zeiss AXIO, Germany).
as §1

[4] = test system: NOP10; assay: as above; conditions: neurons, brain tissues, GBM rats, 30 mg/kg oral, 5 days
Procedure: as §2, §1

SMILES | cellular proliferation / mitosis [1] | tumor focus (description) [1] | vascular proliferation [1] | expression of CMPK2 [2] | expressions of H2AX [3] | expressions of Nopio [4] | necrosis (grade) [1] | necrotic cells (description) [1] | tumor focus size (grade) [1]
CC(C)CCOc1ccc2c(c1)CCC(=O)N2 [TR-G002, 6-(isopentyloxy)-3,4-dihydroquinolin-2(1H)-one] | mild | significantly reduced tumor focus | mild | mild | mild | mild |  |  | 
COc1cc(NC(=O)COc2ccc3c(c2)CCC(=O)N3)cc(OC)c1 [TR-G091, N-(3,5-dimethoxyphenyl)-2-((2-oxo-1,2,3,4-tetrahydroquinolin-6-yl)oxy)acetamide] |  | extended tumor focus encompassing both grey and white matter |  | moderate | moderate | moderate | Moderate |  | 
C=Cc1ccc(COc2ccc3c(c2)CCC(=O)N3)cc1 [TR-G053, 6-((4-vinylbenzyl)oxy)-3,4-dihydroquinolin-2(1H)-one] | intense mitosis around blood vessels | tumor focus including both grey and white matter |  | severe | severe | severe | Severe |  | 
C=CCOC(=O)COc1ccc2c(c1)CCC(=O)N2 [TR-G071, Allyl 2-((2-oxo-1,2,3,4-tetrahydroquinolin-6-yl)oxy)acetate] | moderate levels of mitosis | expanded tumor focus | moderate | moderate | moderate | moderate | moderate (999-500 µm moderate) |  | 
O=C(COc1ccc2c(c1)CCC(=O)N2)N/N=C/c1cnc(-c2ccc(Cl)cc2)nc1 [TR-G066, (E)-N'-((2-(4-chlorophenyl)pyrimidin-5-yl)methylene)-2-((2-oxo-1,2,3,4-tetrahydroquinolin-6-yl)oxy)acetohydrazide] |  | few tumor cells, particularly around blood vessels, rather than a distinct tumor focus shape |  | very mild | very mild | very mild |  |  | 
O=C1CCc2cc(OS(=O)(=O)c3cccc4ccccc34)ccc2N1 [TR-G045, 2-oxo-1,2,3,4-tetrahydroquinolin-6-yl naphthalene-1-sulfonate] | moderate mitosis |  | vascular proliferation in the vicinity of healthy tissue | moderate | moderate | moderate |  | Necrotic cells were present in the central regions | moderate (1999-1000 µm moderate)
